According to PubChem BioAssay (NCI):
Where “and” joins values, the source holds several entries; their conditions need not be identical. Identical values can stand only once.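 Method: 48-hour compound exposure of cells in 96-well plates, five concentrations, linear interpolation of endpoints. The concentration for 50% growth inhibition is given as GI50. TGI: concentration producing complete growth inhibition.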

What was measured:
Test in all cases: NCI-60 cell line screen, 48 h
[1] = tested on: HCT-116 colon
[2] = tested on: HCT-15 colon
[3] = tested on: KM12 colon
[4] = tested on: M14 melanoma
[5] = tested on: OVCAR-5 ovarian
[6] = tested on: PC-3 prostate
[7] = tested on: RPMI-8226 leukemia
[8] = tested on: SF-268 CNS
[9] = tested on: TK-10 renal
[10] = tested on: UACC-257 melanoma

SMILES	GI50 [1]	TGI [1]	GI50 [2]	TGI [2]	GI50 [3]	TGI [3]	GI50 [4]	TGI [4]	GI50 [5]	TGI [5]	GI50 [6]	TGI [6]	TGI [7]	GI50 [8]	TGI [8]	GI50 [9]	TGI [9]	GI50 [10]	TGI [10]	GI50 [7]
[Cl][Cd][Cl]	40.3 µM and 48.3 µM	117 µM	52.2 µM	150 µM	17.9 µM and 9.62 µM	35.1 µM and 30.1 µM	43.4 µM and 62.3 µM	> 76.9 µM and 161 µM	> 61.9 µM and 99.2 µM	98.4 µM and 179 µM	10.5 µM	23.6 µM	8.71 µM and 71.5 µM and 61.8 µM	16.5 µM and 8.95 µM	33.9 µM and 24.4 µM	90.5 µM	192 µM	22 µM and 27 µM	56.2 µM and 74.9 µM	
C/C=C(\C)C(=O)N[C@H]1C(O)C[C@]2(C)C3CC[C@@]4(C)C(CC[C@@H]4C(C)N(C)C)C3CCC2C1O (stereo partly specified)	2.28 µM	6.39 µM	1.71 µM	5.01 µM	6.85 µM	25.8 µM	2.02 µM	3.88 µM	16.7 µM	> 47.9 µM	8.72 µM	> 52.6 µM	25.5 µM	2.8 µM	8.94 µM	18.1 µM	41.5 µM	3.22 µM	9.75 µM	5.95 µM
O=C1OC(c2ccccc2)=N/C1=C\c1cccc(F)c1		> 100 µM		> 100 µM		> 100 µM		> 100 µM		> 100 µM		> 100 µM	50.1 µM		> 100 µM		> 100 µM		88.2 µM	
CO[C@H]1CC(c2ccc[nH]2)=N[C@]12O[C@@H](C)C[C@@H]1CCCCCCCc3ccc([nH]3)[C@H]12	0.711 µM	3.48 µM	0.851 µM	8.51 µM	0.933 µM	6.15 µM	0.898 µM	3.35 µM	1.25 µM	6.22 µM	0.78 µM	20.7 µM	2.96 µM	1.65 µM	> 32.2 µM	2.33 µM	> 29.6 µM	1.33 µM	7.63 µM	0.693 µM
CNC(=O)OCC1C2=C(C(=O)C(C)=C(N)C2=O)N2CC3C(N3C)C12OC (stereo unspecified)		30.4 µM		27 µM				> 100 µM		> 100 µM		64.7 µM	> 100 µM				> 100 µM		70.9 µM	
CCN(CC)CCOc1ccc(C(=O)/C=C\c2ccc(Cl)cc2Cl)cc1	1.56 µM	3.31 µM	2.15 µM	5.16 µM	1.92 µM	4.16 µM	2.17 µM	5 µM	10.3 µM	27.2 µM	4.1 µM	14.5 µM	6.34 µM	8.41 µM	23.7 µM	15.6 µM	29.2 µM	4.51 µM	15.2 µM	1.94 µM
COc1cc(/C=C/C(=O)c2cccnc2Nc2ccc(F)cc2)cc(OC)c1OC	1.54 µM	2.96 µM	2.28 µM	5.95 µM	3.72 µM	17.6 µM	3.19 µM	9.94 µM	4.1 µM	17.8 µM	3.95 µM	20 µM	8.07 µM	4.18 µM	17.6 µM	3.52 µM	9.5 µM	2.9 µM	21.6 µM	2.43 µM
O=S(=O)(NCCNc1nccc(-c2c(-c3ccc(F)cc3)nc3sccn23)n1)c1ccccc1	2.36 µM	14.9 µM	3.07 µM	> 100 µM	4.12 µM	68.3 µM	4.94 µM	> 100 µM	81.1 µM	> 100 µM	4 µM	78.8 µM	33 µM	6.63 µM	> 100 µM	9.41 µM	73.5 µM	10.6 µM	72.8 µM	3.79 µM
O=C(Nc1ccc(Cl)c(Cl)c1)OCCN1c2ccccc2Sc2ccccc21		> 10 µM		> 10 µM		> 10 µM		> 10 µM		> 10 µM		> 10 µM	> 10 µM		> 10 µM		> 10 µM		> 10 µM	
CC(C)COC(=O)c1ccc2[nH]c(O)c(C=Nc3ccc(S(N)(=O)=O)cc3)c2c1	0.613 µM	3 µM	5.9 µM	25 µM	1.06 µM	3.87 µM	1.25 µM	4.8 µM	1.87 µM	13.8 µM	1.6 µM	6.54 µM	18.8 µM	1.22 µM	4.45 µM	1.65 µM	4.52 µM	3.99 µM	9.44 µM	2.55 µM
CC(=O)Oc1ccc(C(c2ccc(OC(C)=O)cc2)c2ccccn2)cc1	40.7 µM	> 100 µM	31.8 µM	> 100 µM	39.2 µM	> 100 µM	56.6 µM	> 100 µM	55.7 µM	> 100 µM and 95.4 µM	16.3 µM	> 100 µM	> 100 µM	> 87.9 µM	> 100 µM	> 59.7 µM	> 100 µM		> 100 µM	30.3 µM
CCN(CC)CCSCCCNc1c2ccc(Cl)cc2nc2ccc(OC)cc12	0.488 µM	2.07 µM	0.433 µM	2.36 µM	0.802 µM	5.03 µM	1.71 µM	3.46 µM	1.14 µM	4.39 µM	1.23 µM	3.06 µM	4.78 µM	1.06 µM	3.01 µM	1.55 µM	3.87 µM	2.06 µM	3.85 µM	1.3 µM
COc1ccc(OC)c(Nc2nc(-c3c(C)nc4sccn34)cs2)c1	> 100 µM	> 100 µM	> 100 µM	> 100 µM	> 100 µM	> 100 µM	> 100 µM	> 100 µM	> 100 µM	> 100 µM	18.1 µM	> 100 µM	> 100 µM	29.7 µM	> 100 µM	87.5 µM	> 100 µM	> 100 µM	> 100 µM	8.91 µM
COc1ccc(C2=CC(c3ccc(OC)c(OC)c3)c3c(c4ccccc4oc3=O)O2)cc1OC (stereo unspecified)	1.58 µM	> 59.6 µM	1.58 µM	> 100 µM	1.25 µM	> 100 µM	1.27 µM	> 31.3 µM	6.33 µM	> 100 µM	0.745 µM	> 100 µM	16.7 µM	3.46 µM	> 100 µM	> 24.9 µM	> 100 µM	1.13 µM	> 100 µM	1.32 µM
